{
  "source": "patent US20210346359A1",
  "about": "“Use of CFTR Modulators For Treating Cerebrovascular Conditions” (Qanatpharma AG, priority 2018, published 2021)",
  "key": {"CFTR [1]": {"molecular_target": "T1, CFTR (Mus musculus, UniProt P26361)", "T1 sequence (P26361 whole entry)": "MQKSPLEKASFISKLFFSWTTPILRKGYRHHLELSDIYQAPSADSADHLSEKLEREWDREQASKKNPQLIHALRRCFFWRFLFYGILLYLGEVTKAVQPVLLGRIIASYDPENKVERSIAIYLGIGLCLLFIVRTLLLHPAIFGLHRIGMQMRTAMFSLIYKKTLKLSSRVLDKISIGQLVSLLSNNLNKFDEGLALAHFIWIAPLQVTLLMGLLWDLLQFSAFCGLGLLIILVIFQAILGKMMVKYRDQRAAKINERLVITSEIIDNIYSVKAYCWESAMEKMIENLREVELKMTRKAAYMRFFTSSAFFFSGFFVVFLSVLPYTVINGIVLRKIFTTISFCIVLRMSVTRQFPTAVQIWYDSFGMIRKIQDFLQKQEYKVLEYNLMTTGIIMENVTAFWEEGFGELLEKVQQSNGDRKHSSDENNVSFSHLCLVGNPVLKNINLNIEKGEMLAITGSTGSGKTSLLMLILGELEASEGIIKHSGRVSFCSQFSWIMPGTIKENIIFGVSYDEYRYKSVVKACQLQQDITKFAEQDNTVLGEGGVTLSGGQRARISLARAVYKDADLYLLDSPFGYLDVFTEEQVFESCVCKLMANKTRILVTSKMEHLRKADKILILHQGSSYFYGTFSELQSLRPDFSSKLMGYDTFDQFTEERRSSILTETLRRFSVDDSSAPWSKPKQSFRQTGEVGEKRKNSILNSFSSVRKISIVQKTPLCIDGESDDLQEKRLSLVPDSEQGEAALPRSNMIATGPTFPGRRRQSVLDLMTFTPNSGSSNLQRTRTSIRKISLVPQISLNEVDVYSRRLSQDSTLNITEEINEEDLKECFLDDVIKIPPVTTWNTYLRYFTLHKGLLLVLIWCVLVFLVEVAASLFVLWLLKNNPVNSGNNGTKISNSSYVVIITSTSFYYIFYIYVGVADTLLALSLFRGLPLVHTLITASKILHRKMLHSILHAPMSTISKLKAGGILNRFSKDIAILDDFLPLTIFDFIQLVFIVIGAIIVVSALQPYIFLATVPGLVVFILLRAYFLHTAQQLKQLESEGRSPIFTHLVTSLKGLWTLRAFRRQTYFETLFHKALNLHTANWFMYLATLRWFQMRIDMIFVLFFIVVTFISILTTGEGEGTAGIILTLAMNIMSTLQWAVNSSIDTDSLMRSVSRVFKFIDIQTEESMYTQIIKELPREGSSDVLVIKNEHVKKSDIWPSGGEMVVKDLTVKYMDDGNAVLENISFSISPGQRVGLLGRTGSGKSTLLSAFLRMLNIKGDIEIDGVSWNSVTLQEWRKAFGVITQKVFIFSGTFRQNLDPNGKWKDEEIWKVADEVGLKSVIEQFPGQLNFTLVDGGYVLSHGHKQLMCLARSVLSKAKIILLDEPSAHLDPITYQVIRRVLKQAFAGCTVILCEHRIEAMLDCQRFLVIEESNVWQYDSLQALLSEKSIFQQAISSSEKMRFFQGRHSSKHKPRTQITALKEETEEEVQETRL", "assay": "Forskolin-stimulated iodide efflux in vascular smooth muscle cells", "assay_type": "cell-based", "design": "mesenteric artery segments were isolated, cut into small pieces and digested with trypsin, collagenase and elastase; endogenous in cells; host or cells: primary mesenteric artery vascular smooth muscle cells", "details": "primary vascular smooth muscle cells; 48 h TNF 10 ng/ml + C18 6 μmol/L for last 24 h", "procedure": "Procedures for isolating and culturing mesenteric artery smooth muscle cells were carried out as described in (10). Briefly, mesenteric artery segments were isolated, cut into small pieces and digested with trypsin, collagenase and elastase. The resulting cell suspension was washed several times in phosphate-buffered saline and plated in Dulbecco's Modified Eagle Medium (DMEM) culture media containing 10% fetal bovine serum and 1% penicillin-streptomycin. Cell cultures were maintained at 37° C. with 5% CO2 and split at 106 cells seeding density. […]\nIodide efflux measurements were conducted as previously described (18). […] Supernatant iodide levels were quantified with an iodide-selective electrode (Lazar Research Laboratories; Los Angeles, USA), calibrated with Nal standards. Pre-stimulation iodide levels were determined and then cells were stimulated with a cocktail containing 10 μmol/L forskolin, 1 mmol/L isobutylmethylxanthine and 100 μmol/L cpt-cAMP (in 1% v/v DMSO). […] Supernatant iodide levels were determined over seven consecutive 1-minute intervals post-stimulation. […] The maximum efflux rate, therefore, was calculated using the measured efflux level between 60-120 seconds post-stimulation (18)."}, "CFTR [2]": {"molecular_target": "T1, CFTR", "assay": "CFTR protein expression in TNF-treated mesenteric artery primary vascular smooth muscle cells", "assay_type": "cell-based", "design": "mesenteric artery segments were isolated, cut into small pieces and digested with trypsin, collagenase and elastase; endogenous in cells; host or cells: primary mesenteric artery vascular smooth muscle cells", "details": "48 h TNF 10 ng/ml + C18 6 μmol/L for last 24 h", "procedure": "Procedures for isolating and culturing mesenteric artery smooth muscle cells were carried out as described in (10). Briefly, mesenteric artery segments were isolated, cut into small pieces and digested with trypsin, collagenase and elastase. The resulting cell suspension was washed several times in phosphate-buffered saline and plated in Dulbecco's Modified Eagle Medium (DMEM) culture media containing 10% fetal bovine serum and 1% penicillin-streptomycin. Cell cultures were maintained at 37° C. with 5% CO2 and split at […] cells seeding density. Baby hamster kidney fibroblast cells stably expressing wild-type human CFTR (10,17) were maintained in DMEM/F12 media containing 5% fetal bovine serum and 250 μmol/L methotrexate (which activates the CFTR transgene promoter). Cells were maintained under standard cell culture conditions at 37° C. with 5% CO2.\nWestern blots for CFTR were completed as previously described (12, 18). […]\nThe primary antibodies were conjugated with either peroxidase-labeled donkey anti-rabbit IgG (GE Healthcare Amersham (Piscataway, USA) cat# NA934) or peroxidase-labeled goat anti-mouse IgG (GE Healthcare Amersham cat# NA931) secondary antibodies. […] Developed films were evaluated densitometrically using “Image J” software (freely available from the NIH); digital images were evaluated with Image Lab software (Bio-Rad)."}},
  "note": "“Also recorded” adds a separate entry of the source.",
  "data": [
    {"smiles": "O=C(Nc1ncc(C(c2ccccc2Cl)N2CCC(O)C2)s1)C1(c2ccc3c(c2)OCO3)CC1", "note": "(centres unmarked) [C18, 1-(benzo[d][1,3]dioxol-5-yl)-N-(5-((2-chlorophenyl)(3-hydroxypyrrolidin-1-yl)methyl)thiazol-2-yl)cyclopropanecarboxamide]", "values": [
      {"measurement": "forskolin-stimulated iodide efflux after TNF", "setting": "CFTR [1]", "value": "fully restores; also recorded: normalization"},
      {"measurement": "CFTR protein expression after TNF down-regulation", "setting": "CFTR [2]", "value": "reverses the decline; also recorded: fully restores"}
    ]}
  ]
}
